One may read the boiling point as the temperature of boiling at a given pressure. A word on the melting point: it is the temperature of the solid-liquid transition. Consider `Cc1ccccc1Br`, for which the boiling point was determined as 182 °C, the log10 vapour pressure (mmHg) came to 0.0186 and the melting point was -27.8 °C.

`CCOCC(O)CO` (stereo not drawn): the boiling point came out at 222 °C.

On to `CC(C)[C@]12CC(=O)[C@H](C)[C@H]1C2`, for which the boiling point was determined as 203 °C and the log10 vapour pressure (mmHg) is -0.385.

`CCCCSC` showed a boiling point of 124 °C, a log10 vapour pressure (mmHg) of 1.19 and a melting point of -97.8 °C.

Regarding `CC[C@@H]1C(=O)OC[C@@H]1Cc1cncn1C.Cl`, the melting point is 204 °C.

The compound `Fc1ccc(F)c(F)c1` came in with a boiling point of 90 °C.

In turn, `C=CCc1ccccc1` displayed a boiling point of 156 °C and a melting point of -40 °C.

`O=[N+]([O-])c1ccc(CBr)cc1`: the melting point is 99 °C.

`c1ccc(-c2noc(-c3ccccc3)n2)cc1`: the boiling point was 290 °C and the melting point stood at 109 °C.

As for `O=Cc1ccccn1`, the boiling point was determined as 180 °C.

With `CC(C)CSCC(C)C`, the boiling point came out at 171 °C and the melting point is -106 °C.

As for `CN(C)CCN(C)CCN(C)C`, the ready biodegradability result is listed as “not readily biodegradable”.

In turn, `BrCCCc1ccccc1` showed a boiling point of 220 °C.

In turn, `CC(=O)c1ccc(I)cc1` had a melting point of 86 °C.

Compound `CCSCc1ccccc1OC(=O)NC` returned a log10 vapour pressure (mmHg) of -5.15 and a melting point of 33.4 °C.

Regarding `COc1cc(CCn2cccc2C(=O)O)cc(OC)c1OC`, the melting point is 132 °C.

For the compound `O=C(O)c1cc(Cl)ccc1Cl`, the boiling point turned out to be 301 °C, the melting point was determined as 154 °C and the ready biodegradability result is given as “not readily biodegradable”.

`C[Si](C)(C)O[Si](O[Si](C)(C)C)(O[Si](C)(C)C)O[Si](C)(C)C` displayed a log10 vapour pressure (mmHg) of -1.17.

`CC/C(=C(/CC)c1ccc(OC)cc1)c1ccc(OC)cc1` showed a melting point of 124 °C.

`CC1=CC(=O)O[C@@]2(C1)C[C@H]1CC[C@@H]2CN1C`: the melting point came out at 54.5 °C.

`CN(C(=O)C(Cl)Cl)c1ccc(O)cc1` came in with a melting point of 175 °C.

Take `CNc1ccccc1C`: the boiling point was 208 °C and the ready biodegradability result is “not readily biodegradable”.

As to `c1cnc2ncncc2n1`, the melting point stood at 140 °C.

In turn, `C1=Cc2cccc3cccc1c23` came in with a boiling point of 280 °C, a log10 Henry constant (atm·m³/mol) of -3.94, a log10 Koc (L/kg) of 3.75 and a log10 biodegradation half-life (days) of 1.58. Further, the log10 vapour pressure (mmHg) was -2.18, the melting point came out at 92.5 °C and the ready biodegradability result is “readily biodegradable”.

As for `O=C(Nc1ccccc1)c1ccccc1I`, the log10 Koc (L/kg) came to 2.82 and the melting point was 137 °C.

`CCCCC[C@@H](O)CC`: the boiling point was 171 °C, the log10 vapour pressure (mmHg) was -0.592 and the melting point was -45 °C.

Compound `Cc1ncc(CO)c(CO)c1O` yielded a melting point of 160 °C.

`c1cc2c3c(cccc3c1)CC2` had a boiling point of 279 °C, a log10 Henry constant (atm·m³/mol) of -3.74, a log10 Koa of 6.31 and a log10 Koc (L/kg) of 3.59. In addition, the log10 biodegradation half-life (days) amounted to 1.59, the log10 vapour pressure (mmHg) was -2.67, the melting point was 93.4 °C and the ready biodegradability entry was “not readily biodegradable”.

As to `COc1ccc(NC(C)=O)cc1N`, the ready biodegradability entry was “not readily biodegradable”.

`BrCCC1CCCCC1` returned a boiling point of 212 °C and a melting point of -57 °C.

In turn, `CC(C)CC(=O)O` returned a boiling point of 176 °C, a log10 Henry constant (atm·m³/mol) of -6.08, a log10 vapour pressure (mmHg) of -0.356 and a melting point of -29.3 °C. The ready biodegradability result is listed as “readily biodegradable”.

`C=CC(=C)F` displayed a boiling point of 12 °C.

`CCC1(CC)C(=O)NC(=S)NC1=O` showed a melting point of 180 °C.

The compound `O=C(O)c1cc(C(=O)O)c(C(=O)O)cc1C(=O)O` displayed a melting point of 276 °C.

With `CC(C)COCCOCCO`, the boiling point came to 217 °C.

On to `O=CN(O)CC(=O)O`, for which the melting point stood at 120 °C.

In turn, `C[C@H](O)CCc1ccccc1` registered a boiling point of 239 °C.

With `CCCn1c(=O)[nH]c(=O)c2[nH]cnc21`, the melting point worked out at 288 °C.

With `CCC(=O)Nc1ccc(Cl)c(Cl)c1`, the boiling point stood at 351 °C, the log10 Koc (L/kg) was determined as 2.17, the log10 vapour pressure (mmHg) was -6.04 and the melting point was 92 °C. The ready biodegradability result is “readily biodegradable”.

Compound `O=C(Nc1ccc(Cl)cc1C(O)c1ccccc1)c1ccncc1` (stereo not drawn) registered a melting point of 211 °C.

In turn, `c1ccc2c(c1)Cc1ccccc1N2` yielded a boiling point of 347 °C.

`O=[N+]([O-])c1cc(C2CCCCC2)c(O)c([N+](=O)[O-])c1` registered a melting point of 107 °C.

Consider `CCCCOC(=O)C(=O)OCCCC`, for which the boiling point is 241 °C and the melting point was -30.5 °C.

Consider `O=C1c2ccccc2C(=O)c2c(O)cccc21`, for which the log10 vapour pressure (mmHg) was -6.68, the melting point is 194 °C and the ready biodegradability entry is on record as “not readily biodegradable”.

Regarding `C=Cc1ccccn1`, the boiling point is 160 °C, the log10 vapour pressure (mmHg) turned out to be 0.444 and the ready biodegradability entry is given as “not readily biodegradable”.

Take `O=C(O)c1cc(Cl)cc(Cl)c1`: the melting point was found to be 188 °C.

Consider `Nc1ccc(Oc2ccc(N)cc2)cc1`, for which the boiling point amounted to 350 °C and the ready biodegradability result is reported as “not readily biodegradable”.

The compound `CC(=O)c1ccccc1C` showed a boiling point of 214 °C.

In turn, `CSCC[C@H](NC(C)=O)C(=O)O` gave a melting point of 106 °C.

`O=C(O)CCC(=O)Nc1ccc(S(=O)(=O)Nc2nccs2)cc1` gave a melting point of 194 °C.

With `CCOc1ccc(NC(=O)CC(C)O)cc1` (stereo not drawn), the melting point is 160 °C.

With `Brc1ccc(Sc2ccc(Br)cc2)cc1`, the boiling point was found to be 268 °C and the melting point stood at 115 °C.

Take `Cc1ccc([N+](=O)[O-])cc1`: the boiling point turned out to be 238 °C, the log10 Henry constant (atm·m³/mol) was -5.25, the log10 vapour pressure (mmHg) was -1.8 and the melting point is 51.6 °C. Moreover, the ready biodegradability entry is “not readily biodegradable”.

`CCNCCN(C)C` gave a boiling point of 134 °C.

In the case of `CCN(CC)C(=O)SCc1ccccc1Cl`, the log10 vapour pressure (mmHg) was -4.03 and the melting point came to 9 °C.

For `CC1=C(/C=C/C(C)=C/C=C/C(C)=C/CO)C(C)(C)CCC1`, the melting point was determined as 63.5 °C.

Regarding `CCCC(C)(CO)CO`, the boiling point was determined as 234 °C and the melting point was found to be 62.5 °C.

Take `CC(C)CC(=O)Cl`: the boiling point was found to be 114 °C.

These data come from the OPERA property sets (Mansouri et al. 2018).
